Results: publication PMC7996082, “The translocator protein ligands as mitochondrial functional modulators for the potential anti-Alzheimer agents” (Journal of Enzyme Inhibition and Medicinal Chemistry, 2021)
Where two headings read alike, the source gives them in different places.

Key:
CYP3A4 = target: T1, CYP3A4 (Homo sapiens, UniProt P08684); test: CYP inhibition assay (Vivid CYP450 screening kit); assay type: in vitro ADME; details: 10 μM compound
T1 construct: purchased Invitrogen, Madison, WI, USA
Experimental: (§1) Human CYP450 (CYP1A2, 2D6, 2C9, 2C19, and 3A4) activities were determined by using the Vivid® CYP450 screening kit (Invitrogen, Madison, WI, USA) in a clear 96-well plate. Five positive controls were used as 10 mM solutions in MeCN for five different CYP450 enzymes: CYP1A2 (α-naphthoflavone), CYP2D6 (quinidine), CYP2C9 (sulfaphenazole), CYP2C19 (lansoprazole), and CYP3A4 (ketoconazole). Each sample (test compounds, positive inhibition controls, and solvent controls) was added into each well with the Master Pre-Mix [CYP450 BACULOSOMES® Reagent (recombinant human CYP450 isozyme and rabbit NADPHP450 reductase) and Regeneration System (3.3 mM glucose-6-phosphate and 0.3 U/ml glucose-6-phosphate dehydrogenase in 100 mM potassium phosphate, pH 8.0)]. The mixture was incubated for 5 min at 37 °C, and the Vivid® CYP substrates and 0.1 mM NADP^+ buffer were added to initiate the CYP450 enzyme reaction. The % remaining activities of CYP450 were measured after 20 min by using a fluorescent plate reader (Flexstation® 3, Molecular Devices, USA).

CYP1A2 = target: T2, CYP1A2 (Homo sapiens, UniProt P05177); test: CYP inhibition assay (Vivid CYP450 screening kit); assay type: in vitro ADME; details: 10 μM compound
T2 construct: purchased Invitrogen, Madison, WI, USA
T2 sequence (P05177 2-516 limits assumed): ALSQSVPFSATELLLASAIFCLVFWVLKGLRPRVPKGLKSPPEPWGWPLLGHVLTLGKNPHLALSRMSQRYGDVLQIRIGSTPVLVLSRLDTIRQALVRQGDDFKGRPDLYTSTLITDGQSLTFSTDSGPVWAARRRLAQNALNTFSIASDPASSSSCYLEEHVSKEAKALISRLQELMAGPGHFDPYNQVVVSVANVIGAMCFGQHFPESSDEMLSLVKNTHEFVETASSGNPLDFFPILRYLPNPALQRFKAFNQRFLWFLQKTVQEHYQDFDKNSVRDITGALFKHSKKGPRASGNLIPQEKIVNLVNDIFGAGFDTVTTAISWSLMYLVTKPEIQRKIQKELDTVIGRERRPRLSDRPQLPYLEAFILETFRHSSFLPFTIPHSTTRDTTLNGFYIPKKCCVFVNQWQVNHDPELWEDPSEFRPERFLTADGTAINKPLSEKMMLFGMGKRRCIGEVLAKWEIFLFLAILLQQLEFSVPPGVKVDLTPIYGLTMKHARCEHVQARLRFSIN
Experimental: as §1

CYP2C9 = target: T3, CYP2C9 (Homo sapiens, UniProt P11712); test: CYP inhibition assay (Vivid CYP450 screening kit); assay type: in vitro ADME; details: 10 μM compound
T3 construct: purchased Invitrogen, Madison, WI, USA
Experimental: as §1

CYP2D6 = target: T4, CYP2D6 (Homo sapiens, UniProt P10635); test: CYP inhibition assay (Vivid CYP450 screening kit); assay type: in vitro ADME; details: 10 μM compound
T4 construct: purchased Invitrogen, Madison, WI, USA
Experimental: as §1

recombinant human TSPO = target: T5, recombinant human TSPO (Homo sapiens, UniProt P30536); test: Surface plasmon resonance (SPR) binding affinity; details: mean ± SD of three measurements
T5 construct: purchased Origene Technologies, Inc. TP320107
Experimental: To determine the binding affinities of the selected compounds, the KD values were measured by using Biacore T200 optical biosensor system (GE Healthcare). The recombinant human TSPO (18 kDa, Origene Technologies, Inc., No.: TP320107) was covalently immobilised on a CM5 chip (GE Healthcare) at 25 °C via standard amine-coupling protocols in 10 mM sodium acetate (pH 4.5) at a flow rate of 10 µL/min for 1500s (immobilised protein densities: 5,000–6,000 response unit (RU)). The tested compounds were initially prepared at 10 mM in DMSO, and serially diluted in PBS-P buffer (10 mM NaH2PO4, 150 mM NaCl, pH 7.4) to 1% DMSO. For each tested compound, the kinetic values were measured using a five-point concentration series, 0.001, 0.01, 0.5, 1, and 5 µM. Multiple blank samples of running buffer alone (0 µM of tested compounds) were incorporated in every measurement. The filtered PBS-P buffer containing 1% DMSO was used as a running buffer during the SPR experiments. To measure the kinetic values, a series of different concentrations were injected over the immobilised chip at a flow rate of 50 µL/min (contact time: 120 s, dissociation time: 300 s), followed by the regeneration process at a flow rate of 50 µL/min (contact time: 120 s, stabilisation time: 10 s). The KD value of each compound was calculated by Biacore T200 evaluation software (GE Healthcare) after the standard solvent correction process.

[1] = Pharmacokinetic study in SD male rats; assay type: in vivo, rat; details: 10 mg/kg; for AUC(0-inf) / AUC(0-t) / clearance / Vd / bioavailability / Tmax / half-life / Cmax: Sprague-Dawley, rat, plasma; for bioavailability: oral vs intravenous; for half-life: male
Experimental: Each test compound at a dose of 10 mg/kg was administered intravenously or orally to male Sprague-Dawley (SD) rats. Blood samples collected via carotid artery at several time points after administration of each compound were stored at −70 °C until LC-MS/MS analysis. To determine the plasma concentration of each compound, a 0.1 µg/mL of internal standard in 100 µL of MeCN was added to 50 µL of plasma samples. After vortex-shaking and centrifugation at 10,000 rpm for 10 min, 5 µL of the supernatant was analysed by LC-MS/MS [HP1100® HPLC system (Agilent, Santa Clara, CA) combined with API3200® triple-quadrupole mass spectrometer (Applied Biosystems-SCIEX, Concord, Canada)]. The HPLC chromatographic separation was performed on a reversed-phase Xterra® C18 column (Waters Corporation, Milford, MA) using gradient elution consisted of 0.1% formic acid and 0.1% formic acid in 90% MeCN at a flow rate of 0.3 ml/min.

CYP2C19 = target: T6, CYP2C19 (Homo sapiens, UniProt P33261); test: CYP inhibition assay (Vivid CYP450 screening kit); assay type: in vitro ADME; details: 10 μM compound
T6 construct: purchased Invitrogen, Madison, WI, USA
Experimental: as §1

[2] = intravenous, n = 3, read-out: Vss
[3] = n = 3, read-out: F (bioavailability)
[4] = iv, intravenous, n = 3, read-out: Terminal half-life
[5] = po, oral, n = 3, read-out: Terminal half-life

T6 sequence (P33261 whole entry): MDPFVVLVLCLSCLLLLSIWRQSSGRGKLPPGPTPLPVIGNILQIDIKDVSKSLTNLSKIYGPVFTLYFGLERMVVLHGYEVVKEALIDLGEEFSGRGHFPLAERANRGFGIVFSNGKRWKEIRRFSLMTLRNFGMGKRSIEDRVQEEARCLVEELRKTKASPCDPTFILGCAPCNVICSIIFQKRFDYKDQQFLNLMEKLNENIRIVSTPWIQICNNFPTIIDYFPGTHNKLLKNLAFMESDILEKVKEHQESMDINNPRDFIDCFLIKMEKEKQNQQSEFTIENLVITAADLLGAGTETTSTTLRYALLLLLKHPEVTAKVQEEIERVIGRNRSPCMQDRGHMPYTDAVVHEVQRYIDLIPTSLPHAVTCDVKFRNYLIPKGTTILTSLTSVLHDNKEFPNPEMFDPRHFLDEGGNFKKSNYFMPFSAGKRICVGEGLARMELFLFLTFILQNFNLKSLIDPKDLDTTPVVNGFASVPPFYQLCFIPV
T3 sequence (P11712 whole entry): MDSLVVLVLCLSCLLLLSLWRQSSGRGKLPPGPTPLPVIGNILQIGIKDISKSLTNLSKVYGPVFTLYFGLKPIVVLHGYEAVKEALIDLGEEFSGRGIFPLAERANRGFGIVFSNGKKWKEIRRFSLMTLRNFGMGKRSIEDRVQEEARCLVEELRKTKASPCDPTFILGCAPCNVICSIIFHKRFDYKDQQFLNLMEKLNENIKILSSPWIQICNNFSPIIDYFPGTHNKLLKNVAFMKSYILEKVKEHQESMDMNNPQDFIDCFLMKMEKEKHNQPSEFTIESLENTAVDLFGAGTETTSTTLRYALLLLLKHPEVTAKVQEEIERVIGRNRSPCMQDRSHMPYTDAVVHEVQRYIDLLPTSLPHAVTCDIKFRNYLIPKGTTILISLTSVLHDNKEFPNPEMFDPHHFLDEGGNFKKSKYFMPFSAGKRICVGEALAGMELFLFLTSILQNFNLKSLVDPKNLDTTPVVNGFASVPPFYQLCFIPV
T1 sequence (P08684 2-503 limits assumed): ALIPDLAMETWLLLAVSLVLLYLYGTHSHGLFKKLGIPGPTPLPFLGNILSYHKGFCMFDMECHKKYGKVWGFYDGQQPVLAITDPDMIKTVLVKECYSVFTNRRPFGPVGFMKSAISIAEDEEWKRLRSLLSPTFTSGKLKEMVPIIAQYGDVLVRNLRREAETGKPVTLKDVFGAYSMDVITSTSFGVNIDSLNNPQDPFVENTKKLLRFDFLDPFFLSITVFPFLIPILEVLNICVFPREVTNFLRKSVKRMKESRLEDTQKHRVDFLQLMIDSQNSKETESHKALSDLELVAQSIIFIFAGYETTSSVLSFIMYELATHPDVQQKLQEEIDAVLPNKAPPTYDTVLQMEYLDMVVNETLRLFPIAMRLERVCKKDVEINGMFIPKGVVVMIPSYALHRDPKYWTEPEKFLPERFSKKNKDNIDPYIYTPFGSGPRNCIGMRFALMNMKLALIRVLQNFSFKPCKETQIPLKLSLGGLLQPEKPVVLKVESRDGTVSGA
T4 sequence (P10635 whole entry): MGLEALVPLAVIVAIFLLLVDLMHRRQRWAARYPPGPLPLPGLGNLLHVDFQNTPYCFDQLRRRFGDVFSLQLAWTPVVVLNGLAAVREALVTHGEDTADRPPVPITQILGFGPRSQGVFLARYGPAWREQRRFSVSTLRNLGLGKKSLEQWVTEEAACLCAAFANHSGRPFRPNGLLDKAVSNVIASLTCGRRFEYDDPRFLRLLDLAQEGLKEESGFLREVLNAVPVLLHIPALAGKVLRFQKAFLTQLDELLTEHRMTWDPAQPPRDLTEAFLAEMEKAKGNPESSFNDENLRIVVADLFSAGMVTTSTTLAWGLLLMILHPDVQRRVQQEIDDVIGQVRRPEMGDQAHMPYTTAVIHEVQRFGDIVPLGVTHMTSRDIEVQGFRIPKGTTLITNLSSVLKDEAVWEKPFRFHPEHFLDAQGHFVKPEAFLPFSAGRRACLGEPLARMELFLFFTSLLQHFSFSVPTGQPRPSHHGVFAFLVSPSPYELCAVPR
T5 sequence (P30536 whole entry): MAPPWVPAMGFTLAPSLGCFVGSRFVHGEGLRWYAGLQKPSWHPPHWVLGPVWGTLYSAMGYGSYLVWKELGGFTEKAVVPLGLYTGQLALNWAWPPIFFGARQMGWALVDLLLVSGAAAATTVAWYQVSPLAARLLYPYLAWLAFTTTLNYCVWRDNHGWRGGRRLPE

SMILES | CYP450 (% remaining Activity at 10 μM) CYP3A4 (CYP3A4) [%] | CYP450 (% remaining Activity at 10 μM) CYP1A2 (CYP1A2) [%] | CYP450 (% remaining Activity at 10 μM) CYP2C9 (CYP2C9) [%] | CYP450 (% remaining Activity at 10 μM) CYP2D6 (CYP2D6) [%] | Kd (recombinant human TSPO) [nM] | CYP450 (% remaining Activity at 10 μM) CYP2C19 (CYP2C19) [%] | AUC(0-t) ([1]; intravenous, n = 3) [ng·h/mL] | clearance ([1]; intravenous, n = 3) [mL/min/kg] | AUC(0-inf) ([1]; intravenous, n = 3, mean ± SD) [ng·h/mL] | Vd [1, 2] [L/kg] | bioavailability [1, 3] [%] | AUC(0-t) ([1]; oral, n = 3) [ng·h/mL] | Cmax ([1]; oral, n = 3) [ng/mL] | AUC(0-inf) ([1]; oral, n = 3, mean ± SD) [ng·h/mL] | Tmax ([1]; oral, n = 3, range in brackets) [h] | half-life [1, 4] [h] | half-life [1, 5] [h] | also measured
CCOc1ccc(-n2c(SCC(=O)Nc3ccc(OC)c(OC)c3)nc3sc4c(c3c2=O)CCN(C(C)=O)C4)cc1 [Compound 7] | 69.9 | 69.0 | 72.5 | 83.3 | 630 ± 330 |  |  |  |  |  |  |  |  |  |  |  |  | AUC(0-inf) ([1]; intravenous, n = 5, Table S3): 6030 ng·h/mL; AUC(0-t) ([1]; intravenous, n = 5, Table S3): 6000 ng·h/mL; clearance ([1]; intravenous, n = 5, Table S3): 28.9 ± 7.09 mL/min/kg; Vd ([1]; intravenous, n = 5, Table S3, read-out: Vss): 1.74 L/kg; bioavailability ([1]; n = 5, Table S3, read-out: F (bioavailability)): 37.3%; AUC(0-inf) ([1]; oral, n = 5, Table S3): 2250 ng·h/mL; AUC(0-t) ([1]; oral, n = 5, Table S3): 1930 ng·h/mL; Tmax ([1]; oral, n = 5, Table S3): 2.2 h; half-life ([1]; iv, intravenous, n = 5, Table S3, read-out: Terminal half-life): 1.04 ± 0.0785 h; half-life ([1]; po, oral, n = 5, Table S3, read-out: Terminal half-life): 2.35 ± 1.04 h
CCOc1ccc(-n2c(SCC(=O)NC3CCN(C)CC3)nc3sc4c(c3c2=O)CCN(C(C)=O)C4)cc1 [Compound 30] | 31.0 | 119.7 | 93.0 | 118.5 |  | 107.6 |  |  |  |  |  |  |  |  |  |  |  | 
CCOc1ccc(-n2c(SCC(=O)NCc3ccccc3)nc3sc4c(c3c2=O)CCN(C(C)=O)C4)cc1 [Compound 31] | 18.3 | 143.1 | 51.1 | 88.1 | 1250 ± 400 | 70.0 | 4560 | 32.5 ± 10.1 | 5510 | 7.74 ± 1.11 | 8 | 194 | 40 ± 20 | 443 | 0.8 | 2.9 ± 0.54 | 7.47 ± 0.46 | 
CCOc1ccc(-n2c(SCC(=O)N3CCN(c4ccccc4)CC3)nc3sc4c(c3c2=O)CCN(C(C)=O)C4)cc1 [Compound 44] | 72.2 | 92.0 | 84.4 | 117.3 | 2740 ± 660 | 28.3 | 17600 | 9.43 ± 1.05 | 17800 | 0.785 ± 0.0396 | 78.4 | 8120 | 2110 ± 910 | 10200 | 1.2 | 1.33 | 3.32 ± 2.24 | Terminal half-life ([1]; intravenous, n = 3): 1.336 ± 0.156 h
CCOc1ccc(-n2c(SCC(=O)NCc3ccccc3)nc3sc4c(c3c2=O)CCN(C)C4)cc1 [Compound 49] | 28.1 | 95.3 | 99.6 | 43.1 |  | 90.0 |  |  |  |  |  |  |  |  |  |  |  | 
CCOc1ccc(-n2c(SCC(=O)N(C)Cc3ccccc3)nc3sc4c(c3c2=O)CCN(C)C4)cc1 [Compound 50] | 36.5 | 97.3 | 66.4 | 30.0 |  | 47.9 |  |  |  |  |  |  |  |  |  |  |  | 
